Measurements: publication PMC5983452 (PLoS ONE, 2018)
Structures can show the parent of a compound that is named as a salt. Where two headings read alike, the source gives them in different places.

System: panel of 240 cancer cell lines
Experiment: Proliferation in a broad panel of 240 cancer cell lines, 2D culture (Eurofins Panlabs Oncopanel)
Type: cell-based
Conditions: read-out: IC50
Method: Cell lines used in these experiments were obtained from the following sources and were cultured according to conditions specified by the respective cell banks. […] The cell lines listed above were tested for mycoplasma and were negative. Cells were authenticated by STR method or vendor protocols. All 313 cell lines in the CRIPSR pooled screen were purchased from commercial vendors and were STR authenticated and mycoplasma negative. A broad panel of cancer cell lines was screened in the Eurofins Oncopanel. All cells in this panel were mycoplasma negative and STR verified.

NC1CCC(S(=O)(=O)N2C3CCC2CC(NC(=O)c2cc(C4CC4)on2)C3)CC1 [EPZ028862, N-((1R,3R,5S)-8-((1r,4R)-4-aminocyclohexylsulfonyl)-8-aza-bicyclo[3.2.1]octan-3-yl)-5-cyclopropylisoxazole-3-carboxamide hydrochloride]
IC50 (5637, Bladder): > 25 µM
IC50 (A7, Skin): > 25 µM
IC50 (AGS, Colon/GI): > 25 µM
IC50 (BC-1, Haematopoietic and lymphoid): > 25 µM
IC50 (BM-1604, BM-1604, Prostate): > 25 µM
IC50 (C32, Skin): > 25 µM
IC50 (C32TG, Skin): > 25 µM
IC50 (C-4 I, Female GU): > 25 µM
IC50 (CEM/C1, CEM-C1, Haematopoietic and lymphoid): > 25 µM
IC50 (CML-T1, CML-T1, Haematopoietic and lymphoid): > 25 µM
IC50 (DB, Haematopoietic and lymphoid): > 25 µM
IC50 (DK-MG, CNS): > 25 µM
IC50 (EB-3, Haematopoietic and lymphoid): > 25 µM
IC50 (EM-2, Haematopoietic and lymphoid): > 25 µM
IC50 (ES-2, Female GU): > 25 µM
IC50 (H4, CNS): > 25 µM
IC50 (HLE, Liver): > 25 µM
IC50 (HLF, Liver): > 25 µM
IC50 (HOS, Soft Tissue): > 25 µM
IC50 (HT, Haematopoietic and lymphoid): > 25 µM
IC50 (HT-3, Female GU): > 25 µM
IC50 (HUH-6-clone5, HUH-6 Clone 5, Liver): > 25 µM
IC50 (Homo sapiens, 22Rv1, 22Rv1, Prostate): > 25 µM
IC50 (Homo sapiens, 639-V, Bladder): > 25 µM
IC50 (Homo sapiens, 647-V, Bladder): > 25 µM
IC50 (Homo sapiens, 769-P, Kidney): > 25 µM
IC50 (Homo sapiens, 786-0, 786-O, Kidney): > 25 µM
IC50 (Homo sapiens, A101D, Skin): > 25 µM
IC50 (Homo sapiens, A 172, A172, CNS): > 25 µM
IC50 (Homo sapiens, A204, A204, Soft Tissue): > 25 µM
IC50 (Homo sapiens, A498, A498, Kidney): > 25 µM
IC50 (Homo sapiens, A549, A549, Lung): > 25 µM
IC50 (Homo sapiens, A673, A-673, Soft Tissue): > 25 µM
IC50 (Homo sapiens, A-375, A375, Skin): > 25 µM
IC50 (Homo sapiens, A-427, A427, Lung): > 25 µM
IC50 (Homo sapiens, A-431, A431, Skin): > 25 µM
IC50 (Homo sapiens, ACHN, Kidney): > 25 µM
IC50 (Homo sapiens, AN3-CA, AN3 CA, Female GU): > 25 µM
IC50 (Homo sapiens, ARH-77, ARH-77, Haematopoietic and lymphoid): > 25 µM
IC50 (Homo sapiens, ASPC1, AsPC-1, Pancreas): > 25 µM
IC50 (Homo sapiens, AU565, AU565, Breast): > 25 µM
IC50 (Homo sapiens, BE(2)-C, BE(2)C, CNS): > 25 µM
IC50 (Homo sapiens, BFTC-905, BFTC-905, Bladder): > 25 µM
IC50 (Homo sapiens, BHT-101, BHT-101, Endocrine): > 25 µM
IC50 (Homo sapiens, BPH-1, BPH1, Prostate): > 25 µM
IC50 (Homo sapiens, BT-20, BT20, Breast): > 25 µM
IC50 (Homo sapiens, BT-474, BT474, Breast): > 25 µM
IC50 (Homo sapiens, BT-549, BT-549, Breast): > 25 µM
IC50 (Homo sapiens, BV-173, BV-173, Haematopoietic and lymphoid): > 25 µM
IC50 (Homo sapiens, BXPC-3, BxPC-3, Pancreas): > 25 µM
IC50 (Homo sapiens, BeWo, Female GU): > 25 µM
IC50 (Homo sapiens, C-4-II, C-4 II, Female GU): > 25 µM
IC50 (Homo sapiens, C-33-A, C-33A, Female GU): > 25 µM
IC50 (Homo sapiens, CAKI-1, Caki-1, Kidney): > 25 µM
IC50 (Homo sapiens, CAKI-2, Caki-2, Kidney): > 25 µM
IC50 (Homo sapiens, CAL-27, Cal 27, Head and Neck): > 25 µM
IC50 (Homo sapiens, CAL-62, CAL-62, Endocrine): > 25 µM
IC50 (Homo sapiens, CAMA-1, CAMA-1, Breast): > 25 µM
IC50 (Homo sapiens, CAPAN-1, Capan-1, Pancreas): > 25 µM
IC50 (Homo sapiens, CCF-STTG1, CCF-STTG1, CNS): > 25 µM
IC50 (Homo sapiens, CCRF-CEM, CCRFCEM, Haematopoietic and lymphoid): > 25 µM
IC50 (Homo sapiens, CFPAC-1, CFPAC-1, Pancreas): > 25 µM
IC50 (Homo sapiens, CGTH-W-1, CGTH-W-1, Endocrine): > 25 µM
IC50 (Homo sapiens, CHL-1, CHL-1, Skin): > 25 µM
IC50 (Homo sapiens, CHP-212, CHP-212, CNS): > 25 µM
IC50 (Homo sapiens, COLO 201, Colo 201, Colon/GI): > 25 µM
IC50 (Homo sapiens, COLO 205, Colo 205, Colon/GI): > 25 µM
IC50 (Homo sapiens, COLO 320DM, Colon/GI): > 25 µM
IC50 (Homo sapiens, COLO-320-HSR, Colo 320 HSR, Colon/GI): > 25 µM
IC50 (Homo sapiens, COLO-829, COLO 829, Skin): > 25 µM
IC50 (Homo sapiens, COR-L23, COR-L23, Lung): > 25 µM
IC50 (Homo sapiens, COR-L105, COR-L105, Lung): > 25 µM
IC50 (Homo sapiens, CRO-AP2, CRO-AP2, Haematopoietic and lymphoid): > 25 µM
IC50 (Homo sapiens, Calu-1, Calu1, Lung): > 25 µM
IC50 (Homo sapiens, Calu-6, Calu6, Lung): > 25 µM
IC50 (Homo sapiens, Caov-3, CaOV3, Female GU): > 25 µM
IC50 (Homo sapiens, Capan-2, Capan-2, Pancreas): > 25 µM
IC50 (Homo sapiens, ChaGo-K-1, ChaGoK1, Lung): > 25 µM
IC50 (Homo sapiens, D283 Med, CNS): > 25 µM
IC50 (Homo sapiens, DBTRG-05MG, CNS): > 25 µM
IC50 (Homo sapiens, DLD-1, DLD-1, Colon/GI): > 25 µM
IC50 (Homo sapiens, DMS-53, DMS53, Lung): > 25 µM
IC50 (Homo sapiens, DMS-114, DMS114, Lung): > 25 µM
IC50 (Homo sapiens, DMS-273, DMS273, Lung): > 25 µM
IC50 (Homo sapiens, DOHH-2, DOHH-2, Haematopoietic and lymphoid): 8.66 µM
IC50 (Homo sapiens, DU-145, DU145, Prostate): > 25 µM
IC50 (Homo sapiens, Daoy, CNS): > 25 µM
IC50 (Homo sapiens, Daudi, Haematopoietic and lymphoid): > 25 µM
IC50 (Homo sapiens, Detroit 562, Detroit 562, Head and Neck): > 25 µM
IC50 (Homo sapiens, DoTc2-4510, DoTc2 4510, Female GU): > 25 µM
IC50 (Homo sapiens, EFM-19, EFM-19, Breast): > 25 µM
IC50 (Homo sapiens, FaDu, Head and Neck): > 25 µM
IC50 (Homo sapiens, G-401, G-401, Kidney): > 25 µM
IC50 (Homo sapiens, G-402, G-402, Kidney): > 25 µM
IC50 (Homo sapiens, HCT-8, HCT-8, Colon/GI): > 25 µM
IC50 (Homo sapiens, HCT-15, HCT-15, Colon/GI): > 25 µM
IC50 (Homo sapiens, HCT-116, HCT-116, Colon/GI): > 25 µM
IC50 (Homo sapiens, HEC-1-A, Female GU): > 25 µM
IC50 (Homo sapiens, HEL 92.1.7, HEL-92-1-7, Haematopoietic and lymphoid): > 25 µM
IC50 (Homo sapiens, HMCB, Skin): > 25 µM
IC50 (Homo sapiens, HPAF-II, Pancreas): > 25 µM
IC50 (Homo sapiens, HT1197, HT-1197, Bladder): > 25 µM
IC50 (Homo sapiens, HT-29, HT-29, Colon/GI): > 25 µM
IC50 (Homo sapiens, HT-1080, HT-1080, Soft Tissue): > 25 µM
IC50 (Homo sapiens, HT-1376, HT1376, Bladder): > 25 µM
IC50 (Homo sapiens, HeLa, Female GU): > 25 µM
IC50 (Homo sapiens, HepG2, HepG2, Liver): > 25 µM
IC50 (Homo sapiens, Hs 294T, Skin): > 25 µM
IC50 (Homo sapiens, Hs 695T, Skin): > 25 µM
IC50 (Homo sapiens, Hs746T, HS 746T, Colon/GI): > 25 µM
IC50 (Homo sapiens, Hs-578T, Hs 578T, Breast): > 25 µM
IC50 (Homo sapiens, HuCCT-1, HuCCT1, Liver): > 25 µM
IC50 (Homo sapiens, HuP-T4, HuP-T4, Pancreas): > 25 µM
IC50 (Homo sapiens, J-RT3-T3-5, J-RT3-T3-5, Haematopoietic and lymphoid): > 25 µM
IC50 (Homo sapiens, JEG-3, JEG-3, Female GU): > 25 µM
IC50 (Homo sapiens, Jurkat, Haematopoietic and lymphoid): > 25 µM
IC50 (Homo sapiens, K562, K562, Haematopoietic and lymphoid): > 25 µM
IC50 (Homo sapiens, KATO III, Colon/GI): > 25 µM
IC50 (Homo sapiens, L-428, L-428, Haematopoietic and lymphoid): > 25 µM
IC50 (Homo sapiens, LNCaP, Prostate): > 25 µM
